Consider eleven compounds from ChEMBL document CHEMBL1201862, “PubChem BioAssay data set” (2004).

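Values below derive from 48-hour exposures of cells grown in 96-well plates, with endpoints linearly interpolated between the two concentrations bracketing the appropriate inhibition level. Here, GI50 denotes the concentration required for 50% inhibition of growth.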 Active and inactive are the calls of the source. Rule as the data show it: active = GI50 up to about 1.1 µM and inactive = higher.

Test systems include SF-295; NCI-H226; IGROV-1; HCT-116; EKVX; OVCAR-5; SF-539; ACHN; KM-20L2; NCI-H23; SK-MEL-2; U-251; NCI-H522; TK-10; 786-0; SNB-19; MDA-N; PC-3; T47D; CCRF-CEM.
Test in all cases: inhibition of tumour cell growth, NCI panel, 48 h

Consider `O=c1c2ccccc2c2nc3ccccc3nc2n1C1CCCCC1`, for which the GI50 in the test on SF-295 is 95.3 µM (inactive); in the test with NCI-H226 it was > 100 µM (inactive); in the test with IGROV-1, > 100 µM (inactive); with HCT-116 it was > 100 µM (inactive); in the test on EKVX, > 100 µM (inactive); in the test on OVCAR-5, > 100 µM (inactive). Moreover, the GI50 in the test on SF-539, with ACHN, with KM-20L2, in the test on NCI-H23, in the test on SK-MEL-2 and in the test with U-251 was > 100 µM (inactive) throughout. Further, the GI50 with NCI-H522, in the test on TK-10, with 786-0 and in the test with SNB-19 was > 100 µM (inactive) each time.

Take `CCC1(OC(=O)CN2CCN(CCO)CC2)C(=O)OCc2c1cc1n(c2=O)Cc2cc3ccccc3nc2-1` (stereo unspecified): the GI50 in the test with SF-295 is 0.141 µM (active); with NCI-H226 it was 0.329 µM (active); in the test on IGROV-1, 0.778 µM (active); with MDA-N, 1.63 µM (inactive); in the test with HCT-116, 0.417 µM (active); in the test with EKVX, 4.51 µM (inactive). Moreover, the GI50 with OVCAR-5 was 1.1 µM (active); in the test on PC-3, 0.405 µM (active); with SF-539, 0.188 µM (active); in the test on ACHN it was 0.0667 µM (active); in the test on KM-20L2, 1.22 µM (inactive); in the test on T47D, 0.212 µM (active). Further, the GI50 in the test with NCI-H23 is 0.167 µM (active); in the test with SK-MEL-2 it was 4.25 µM (inactive); in the test with U-251, 0.143 µM (active); with NCI-H522 it was 0.306 µM (active); in the test with TK-10 it was 8.49 µM (inactive); with 786-0, 0.13 µM (active). For the same compound, the GI50 is 0.216 µM (active) with SNB-19 and 0.0324 µM (active) with CCRF-CEM.

As for `NC(=S)N/N=C1\C(=O)N(CCc2ccccc2)C(=O)C1C(=O)NCCc1ccccc1` (stereo unspecified), the GI50 with SF-295, in the test with NCI-H226, with IGROV-1, in the test with HCT-116, in the test with EKVX and in the test with OVCAR-5 was > 100 µM (inactive) each time. Moreover, the GI50 in the test with SF-539, in the test on ACHN, in the test with KM-20L2, in the test with NCI-H23, in the test on SK-MEL-2 and with U-251 was > 100 µM (inactive) in each case. Moreover, the GI50 in the test on NCI-H522, in the test on TK-10, in the test with 786-0 and with SNB-19 was > 100 µM (inactive) throughout.

`Cc1cc(Cl)ccc1NC(=O)C1C(=O)N(c2ccc(Cl)cc2C)C(=O)/C1=N\N` (stereo unspecified): the GI50 with SF-295 is 28.9 µM (inactive); with NCI-H226, 27 µM (inactive); in the test on IGROV-1 it was 55.1 µM (inactive); with HCT-116, 30.5 µM (inactive); in the test with EKVX, 57.5 µM (inactive); with OVCAR-5, 60.5 µM (inactive). Also, the GI50 in the test with SF-539 is 44.6 µM (inactive); in the test with ACHN, 34.1 µM (inactive); with KM-20L2, 36 µM (inactive); in the test with NCI-H23 it was 36.9 µM (inactive); in the test on SK-MEL-2 it was 27 µM (inactive); with U-251, 33 µM (inactive). Further, the GI50 with NCI-H522 is 53.5 µM (inactive); in the test on TK-10, 34.3 µM (inactive); with 786-0, 81.3 µM (inactive); with SNB-19 it was 38.9 µM (inactive); with CCRF-CEM, 28.6 µM (inactive).

In the case of `CCOC(=O)/C(O)=C(/c1n[nH]c(=O)c2ccccc12)[N+](=O)[O-]`, the GI50 in the test with SF-295 is > 100 µM (inactive); in the test on NCI-H226 it was > 100 µM (inactive); with IGROV-1, > 100 µM (inactive); with HCT-116, > 100 µM (inactive); in the test on EKVX it was 70.8 µM (inactive); in the test on OVCAR-5 it was > 100 µM (inactive). Besides, the GI50 in the test on SF-539, with ACHN, with KM-20L2, in the test with NCI-H23, with SK-MEL-2 and in the test on U-251 was > 100 µM (inactive) in each case. Also, the GI50 in the test on NCI-H522, with TK-10, in the test on 786-0, with SNB-19 and with CCRF-CEM was > 100 µM (inactive) each time.

Consider `C=C1C(=O)OC2/C=C(\C)C(OC(C)=O)C3OC3C(C)(O)CC(OC(=O)/C(C)=C/C)C12` (stereo unspecified), for which the GI50 is 19.1 µM (inactive) with SF-295; 10 µM (inactive) in the test on NCI-H226; 16.9 µM (inactive) in the test with IGROV-1; 2.16 µM (inactive) in the test with HCT-116; 18.3 µM (inactive) with EKVX; 17.4 µM (inactive) with OVCAR-5. The GI50 in the test with SF-539 was 3.67 µM (inactive); with ACHN, 13.5 µM (inactive); in the test on KM-20L2 it was 4.46 µM (inactive); in the test with NCI-H23, 12.8 µM (inactive); in the test on SK-MEL-2, 6.59 µM (inactive); in the test with U-251, 12.1 µM (inactive). Further, the GI50 was 1.62 µM (inactive) with NCI-H522; 11.9 µM (inactive) in the test with TK-10; 4.73 µM (inactive) in the test with 786-0; 18.7 µM (inactive) in the test on SNB-19; 2.81 µM (inactive) in the test with CCRF-CEM.

On to `COc1cc2c(cc1O)C1C(O)C(O)C=C3CCN(C2)C31` (stereo unspecified), for which the GI50 with SF-295 is 2.31 µM (inactive); in the test on NCI-H226 it was 2.55 µM (inactive); in the test on IGROV-1, 2.74 µM (inactive); with HCT-116, 0.158 µM (active); in the test with EKVX, 3.84 µM (inactive); in the test on OVCAR-5 it was 4.39 µM (inactive). Moreover, the GI50 in the test on SF-539 is 2.09 µM (inactive); in the test with ACHN it was 1.85 µM (inactive); with KM-20L2, 2.34 µM (inactive); in the test on NCI-H23 it was 2.13 µM (inactive); with SK-MEL-2, 1.83 µM (inactive); with U-251, 2.98 µM (inactive). Moreover, the GI50 is 1.8 µM (inactive) in the test on NCI-H522; 2.65 µM (inactive) in the test with TK-10; 2.39 µM (inactive) in the test with 786-0; 1.39 µM (inactive) in the test with SNB-19; 3.65 µM (inactive) in the test on CCRF-CEM.

Take `Cc1cc2c(cc1C)[n+]([O-])c(C(=O)/C=C/c1ccc3c(c1)OCO3)c(C)[n+]2[O-]`: the GI50 in the test on SF-295 was 21.1 µM (inactive); in the test on NCI-H226, 86.5 µM (inactive); in the test on IGROV-1, 48.4 µM (inactive); with MDA-N, > 100 µM (inactive); in the test on HCT-116, 53.8 µM (inactive); in the test with EKVX, > 70 µM (inactive). Moreover, the GI50 in the test on OVCAR-5 is > 100 µM (inactive); in the test on PC-3, > 100 µM (inactive); with SF-539, 56.4 µM (inactive); in the test with ACHN it was 40.9 µM (inactive); in the test with KM-20L2 it was > 100 µM (inactive); in the test with T47D it was > 86.1 µM (inactive). Moreover, the GI50 in the test on NCI-H23 is 38.3 µM (inactive); in the test with SK-MEL-2, 27.9 µM (inactive); in the test on U-251, 25.4 µM (inactive); in the test on NCI-H522, 27.6 µM (inactive); with TK-10, 23.9 µM (inactive); in the test with 786-0, 36.6 µM (inactive). Besides, the results for the GI50 in the test with SNB-19 and with CCRF-CEM were 27.5 µM (inactive) and > 100 µM (inactive), respectively.

For `O=c1cc(CO)oc2c3c(cc(O)c12)OCC(COC1OC(CO)C(O)C(O)C1O)=CC3` (stereo unspecified), the GI50 in the test on SF-295, in the test on NCI-H226, with IGROV-1, in the test on HCT-116, with EKVX and in the test on OVCAR-5 was > 100 µM (inactive) throughout. Further, the GI50 in the test with SF-539, with ACHN, in the test with KM-20L2, with NCI-H23, with SK-MEL-2 and with U-251 was > 100 µM (inactive) throughout. Besides, the GI50 in the test on NCI-H522, in the test with TK-10, in the test on 786-0, with SNB-19 and with CCRF-CEM was > 100 µM (inactive) throughout.

Take `CC1(C)c2ccccc2N2C(c3ccccc3)=NOC21C` (stereo unspecified): the GI50 with SF-295, in the test on NCI-H226, in the test on IGROV-1, with HCT-116, in the test with EKVX and in the test on OVCAR-5 was > 100 µM (inactive) throughout. The GI50 in the test on SF-539, in the test with ACHN, with KM-20L2, in the test on NCI-H23, with SK-MEL-2 and in the test on U-251 was > 100 µM (inactive) each time. For the same compound, the GI50 in the test with NCI-H522, in the test on TK-10, with 786-0, in the test with SNB-19 and in the test on CCRF-CEM was > 100 µM (inactive) each time.

As to `CC(=O)O[C@H]1C(=O)[C@@]2(C)C([C@H](OC(=O)c3ccccc3)[C@]3(O)C[C@H](OC(=O)[C@H](O)[C@H](NC(=O)c4ccccc4)c4ccc(Cl)cc4)C(C)=C1C3(C)C)C1(OC(C)=O)CO[C@@H]1C[C@@H]2O` (stereo partly specified), the GI50 was 0.0194 µM (active) in the test with SF-295; 0.00229 µM (active) in the test on NCI-H226; 0.000136 µM (active) in the test with IGROV-1; 0.000113 µM (active) with HCT-116; 0.769 µM (active) with EKVX; 0.00294 µM (active) in the test with OVCAR-5. In addition, the GI50 with SF-539 was 0.000367 µM (active); in the test on ACHN it was 0.261 µM (active); in the test on KM-20L2 it was 0.00103 µM (active); in the test with NCI-H23, 0.00104 µM (active); in the test on SK-MEL-2, 0.00594 µM (active); in the test on U-251, 0.00182 µM (active). The GI50 in the test on NCI-H522 is 0.000356 µM (active); with TK-10, 0.0226 µM (active); in the test with 786-0, 0.00711 µM (active); in the test on SNB-19 it was 0.0304 µM (active); with CCRF-CEM, 0.00188 µM (active).
